# Legend:
# [1] = test system: SKVLB-1 cell line (sub-line of SK-OV-3 selected for resistance to vinblastine, P-glycoprotein-overexpressing); details: SK-OV-3 versus SKVLB-1; Mooberry et al. 1999, Smith et al. 1994; cited from earlier work
# Bc1-2 and caspase 3 = details: 18 and 24 hrs following treatment
# Experimental: Following drug exposure the cells were harvested and cellular proteins extracted in radioimmunoprecipitation buffer in the presence of protease inhibitors as described previously (see Mooberry et al., Supra). The protein concentrations of the samples were determined (Pierce Reagent, Rockford, Ill.) and cell lysate aliquots containing equal concentrations of protein were separated, transferred, probed with specific antibodies, and detected as previously described (see Mooberry et al., in Cancer Res. 59:653-660 (1999)). The Bc1-2 and caspase 3 antibodies were purchased from PharMingin (San Diego, Calif.).
# [2] = test system: SK-OV-3 human ovarian carcinoma cell line; assay: Inhibition of cell proliferation, sulforhodamine B (SRB) assay; assay type: cell-based; details: 48 hr treatment, mean of 3 or 4 experiments ± SD
# Experimental: (§1) A-10 rat aortic smooth muscle cells, SK-OV-3 human ovarian carcinoma cell line and HeLa cells were obtained from the American Type Culture Collection (Manassas, Va.) and were cultured in BME containing 10% FBS and 50 μg/1 mL gentamycin sulfate. […] The A-10, HeLa, SK-OV-3, and SKVBL-1 cells were grown in Basal Medium Eagle containing Earle's salts, 50 μg/ml gentamycin, and 10% fetal bovine sorum (Hyclone, Logan Utah). Vinblastine was added to a final concentration of 1 μg/mL to SKVLB-1 cells 24 hours after passage to maintain selection pressure for P-glycoprotein-overexpressing cells.
# (§2) The IC50 for inhibition of cell proliferation was determined by measuring cell-associated protein after drug treatment using the sulforhodamine B assay (see, for example, J. Natl. Cancer Inst. 82:1107-1112 (1990) and Drug Development Res. 34:91-109 (1995)).
# (§3) The IC50 for each cell line was calculated from the dose response curves. The resistance factor was calculated by dividing the IC50 of the drug sensitive cell line by the IC50 of the drug resistant cell line. The values represent the mean of 3 or 4 experiments ± the SD.
# [3] = test system: SKVLB-1 cell line (sub-line of SK-OV-3 selected for resistance to vinblastine, P-glycoprotein-overexpressing); assay: Inhibition of cell proliferation, SRB assay, multidrug-resistant line
# Experimental: as §1, §2, §3
# [4] = test system: A-10 rat aortic smooth muscle cells; assay: Indirect immunofluorescence of microtubules, mitotic spindles and nuclei; details: low concentration 0.5 μM; cell line not specified (A-10 or HeLa)
# Experimental: A-10 cells were grown to 70-85% confluency on glass coverslips in BME/10% FBS. Drug compounds in PBS were added to the indicated final concentrations and cells were incubated for an additional 24 hours. For the staining of microtubules and intermediate filaments, the cells were fixed with cold methanol for 5 minutes, blocked for 20 minutes with PBS containing 10% calf serum to block nonspecific binding sites, and incubated at 37° C. for 60-90 min with monoclonal anti-β-tubulin at the dilutions recommended by the manufacturer. Bound primary antibodies were subsequently visualized by a one hour incubation with fluorescein (FITC)-conjugated sheep antimouse IgG (F-3008; Sigma). The coverslips were washed, stained with 0.1 μg/mL DAPI for 10 minutes, mounted on microscope slides and the fluorescence patterns were examined and photographed using a Zeiss Axioplan microscope equipped with epifluorescence optics for fluorescein and DAPI.
# [5] = test system: purified glycerol-free bovine brain tubulin; assay: Assembly of purified tubulin (turbidity); assay type: biochemical; details: for Potency in tubulin polymerization relative to Taxol/paclitaxel: compared with 2 μM paclitaxel
# Experimental: The assembly of purified tubulin was monitored spectrophotometrically by the change in absorbance at 340 nm. Purified glycerol-free bovine brain tubulin (TL-238, Cytoskeleton, Denver, Colo.) was solubilized in ice cold G-PEM buffer (80 mM PIPES, pH 6.9, 1 mM MgCl2, 1 mM EGTA and 1 mM GTP) and taccalonolide, Taxol or vehicle control was added and mixed well. The final concentration of tubulin was 1 mg/ml and ethanol concentration was 1% or less. An aliquot of the mixture was transferred to a room temperature 96 well plate and tubulin polymerization monitored for 60 min. at 35° C. in a temperature controlled microplate spectrophotometer.
# [6] = test system: MDA-MB-435 human mammary adenocarcinoma cell line; assay: Inhibition of cell proliferation, sulforhodamine B (SRB) assay; details: read-out: IC50 inhibition of proliferation, MDA-MB-435, 48 hr treatment, mean of 3 or 4 experiments ± SD
# Experimental: as §1, §2, §3
# [7] = test system: SKVLB-1 cell line (sub-line of SK-OV-3 selected for resistance to vinblastine, P-glycoprotein-overexpressing)
# Experimental: as §1, §2, §3
compound,measurement,setting,value
COc1ccc(C[C@H]2NC(=O)/C=C/C[C@@H]([C@H](C)[C@H]3O[C@@H]3c3ccccc3)OC(=O)[C@H](CC(C)C)OC(=O)[C@H](C)CNC2=O)cc1Cl [cryptophycin 1],Resistance factor (literature),[1],1.1
taccalonolide A,p17 subunit of activated caspase 3 by immunoblot,Bc1-2 and caspase 3,detected
same,IC50,[2],2300 nM
same,Inhibition of proliferation of SKVLB-1 (in words),[3]; P-glycoprotein overexpressing line,completely inhibit the proliferation
same,Resistance factor,[3]; SK-OV-3 (drug-sensitive) versus SKVLB-1 (drug resistant) IC50,285
same,Substrate for P-glycoprotein mediated drug transport,[3]; inferred from resistance factor SK-OV-3/SKVLB-1,poor substrate
same,IC50,"[3]; read-out: IC50 inhibition of proliferation, SKVLB-1, 48 hr treatment, SRB assay, multidrug-resistant line, mean of 3 or 4 experiments ± SD",656000 ± 42000 nM
same,First observable cellular change in dose-response study,[4],abnormal coordination of the DNA in the metaphase plate during mitosis
same,Effect on polymerization of purified tubulin,"[5]; 2 μM and 200 μM, 35° C., 60 min",stimulated the polymerization of tubulin
same,Potency in tubulin polymerization relative to Taxol/paclitaxel,[5]; listed as Taccalonolide,much less potent than Taxol
same,Potency in tubulin polymerization relative to Taxol/paclitaxel,[5]; listed as taccalonolide,much less potent than paclitaxel
same,IC50,[6],2100 nM
CC(=O)O[C@H]1C(=O)[C@@]2(C)[C@H]([C@H](OC(=O)c3ccccc3)[C@]3(O)C[C@H](OC(=O)[C@H](O)[C@@H](NC(=O)c4ccccc4)c4ccccc4)C(C)=C1C3(C)C)[C@]1(OC(C)=O)CO[C@@H]1C[C@@H]2O [Paclitaxel],inhibition,[7],≤ 70%
same,Resistance factor (literature),[1],"greater than 58,000"
C=C1C[C@H](C)C[C@@H]2CC=C[C@@H](C/C=C\C(=O)O[C@H]([C@@H](O)/C=C/[C@@H]3CC(C)=CCO3)C[C@@H]3O[C@H]3[C@@H](O)C1)O2 [laulimalide],Resistance factor (literature),[1],105

# — US6878699B1, “Taccalonolide microtubule stabilizing agents” (University of Hawaii, priority 1999, dated 2005)
